How the values were obtained:
hTRPA1 [1] = target: T1, hTRPA1 (Homo sapiens, UniProt O75762); experiment: Ca2+ imaging (Fura-2 AM) of hTRPA1-expressing Flp-In 293 cells; format: cell-based; conditions: RR 30 µM, HC-030031 100 µM
T1 construct: expressed in transfected cells
Procedure: Flp-In 293 cell lines stably expressing hTRPA1constructed as previously reported was a gift from the professor […] at University of Tokyo. The hTRPA1-expressing cells were cultured in DMEM containing 10% FBS and 0.02% hygromycin B (Invitrogen). Flp-In 293 cell lines were maintained in DMEM containing 10% FBS. All cells were incubated at 37°C in a humidified atmosphere of 5% CO2. […] Mock-transfected HEK293T cells, hTRPV1-expressing HEK293T cells, non-hTRPA1-expressing Flp-In 293 cells, and hTRPA1-expressing Flp-In 293 cells grown in 96-well black-wall plates were rinsed with assay buffer (130 mM NaCl, 10 mM glucose, 5 mM KCl, 2 […]2, 1.2 mM MgCl2, and 10 mM HEPES, pH 7.4) and loaded with 5 μM Fura-2 AM (Invitrogen) for 30 min at 27°C. The cells were washed with assay buffer and treated with ligands. […] The fluorescence intensities of Fura-2 excited at 340 and 380 nm were simultaneously measured at 510 nm using a computer-controlled filter changer (Lambda DG4; Sutter, San Rafael, CA, USA), an Andor Luca CCD camera (Andor Technology, Belfast, UK), and an inverted fluorescence microscope (IX-71; Olympus, Tokyo, Japan). Intracellular calcium images were recorded every 3-s for 60-s and analyzed using MetaFluor software (Molecular Devices, Sunnyvale, CA, USA).

hTRPA1 [2] = target: T1, hTRPA1; experiment: Measurement of Ca2+ influx (Fluo-4 AM, FlexStation III) in hTRPA1-expressing cells; format: cell-based; conditions: for block of NGCC activity on hTRPA1-expressing cells (dose-response): RR 30 µM, HC-030031 100 µM; for block of AITC activity on hTRPA1-expressing cells (dose-response): RR 30 µM: below 30 µM AITC, HC-030031 100 µM: below 10 µM AITC
Procedure: (§1) Flp-In 293 cell lines stably expressing hTRPA1constructed as previously reported was a gift from the professor Takumi Misaka at University of Tokyo. The hTRPA1-expressing cells were cultured in DMEM containing 10% FBS and 0.02% hygromycin B (Invitrogen). Flp-In 293 cell lines were maintained in DMEM containing 10% FBS. All cells were incubated at 37°C in a humidified atmosphere of 5% CO2.
(§2) The ligand-induced changes on cytosolic Ca^2+ level were monitored by a FlexStation III microplate reader (Molecular Devices). Fluo-4 AM (5 µM, Molecular Probes, Eugene, OR, USA) in assay buffer was loaded to the cells in 96-well black-wall plates for 30 min at 27°C. After dye treatment, each chemical was added to each well at 17 s and changes on intracellular Ca^2+ level were monitored by relative fluorescence units (ΔRFU, Ex = 485 nm; Em = 516 nm) for 120 s. […] The responses from at least three wells receiving the same stimulus were averaged. Plots of amplitude versus concentration were fitted using the Hill equation.

hTRPA1 [3] = target: T1, hTRPA1; experiment: Whole-cell patch clamp recording, cells stably expressing hTRPA1; format: cell-based
Procedure: as §1
(§3) The whole-cell configuration was used to voltage-clamp at room temperature (22–25°C). Electrodes pulled from glass micropipette capillaries (Sutter Instrument) had resistances of 2–2.5 MΩ, and series resistance errors were compensated >60%. Fast and slow capacitances were compensated before the application of test-pulse. Recordings were performed using aHEKAEPC-10 amplifier with pulse software (HEKA Elektronik). The pipette solution contained: 140 mM KCl, 5 mM MgCl2, 10 mM HEPES, 0.1 mM 1,2-bis(2-aminophenoxy) ethane N,N,N’,N’-tetraacetic acid(BAPTA), 3 mM Na2ATP, and 0.1 mM Na3GTP, adjusted to pH 7.4 with KOH. The external Ringer’s solution used for recording TRPV1 and TRPA1 currents contained: 150 mM NaCl, 5 mM KCl, 1 mM MgCl2, 2 mM EGTA, 10 mM Glucose, and 10 mM HEPES, adjusted to pH 7.4 with NaOH. TRPV1 and TRPA1 currents were recorded by holding the cell at −80 mV. The external Ringer’s solution used for recording ASIC current contained: 160 mM NaCl, 5 mM KCl, 1 mM MgCl2, 2 mM CaCl2, and 10 mM HEPES, adjusted to pH 7.4 with tetramethylammonium hydroxide. For acidic solution of pH 6.0, HEPES was replaced with MES. ASIC currents were recorded by holding the cell at −70 mV. Reagents were obtained as follows: BAPTA, Na2ATP, Na3GTP, EGTA, and tetramethylammonium hydroxide (Sigma), HEPES (Calbiochem), MES (Alfa Aesar), and other chemicals (Merck).

hTRPV1 [4] = target: T2, hTRPV1 (Homo sapiens, UniProt Q8NER1); experiment: Ca2+ imaging (Fura-2 AM) of hTRPV1-expressing HEK293T cells; format: cell-based; conditions: NGCC 30 µM; RR 30 µM, CPZ 1 µM
T2 construct: expressed in transfected cells; host or cells: HEK293T
T2 sequence (Q8NER1 whole entry): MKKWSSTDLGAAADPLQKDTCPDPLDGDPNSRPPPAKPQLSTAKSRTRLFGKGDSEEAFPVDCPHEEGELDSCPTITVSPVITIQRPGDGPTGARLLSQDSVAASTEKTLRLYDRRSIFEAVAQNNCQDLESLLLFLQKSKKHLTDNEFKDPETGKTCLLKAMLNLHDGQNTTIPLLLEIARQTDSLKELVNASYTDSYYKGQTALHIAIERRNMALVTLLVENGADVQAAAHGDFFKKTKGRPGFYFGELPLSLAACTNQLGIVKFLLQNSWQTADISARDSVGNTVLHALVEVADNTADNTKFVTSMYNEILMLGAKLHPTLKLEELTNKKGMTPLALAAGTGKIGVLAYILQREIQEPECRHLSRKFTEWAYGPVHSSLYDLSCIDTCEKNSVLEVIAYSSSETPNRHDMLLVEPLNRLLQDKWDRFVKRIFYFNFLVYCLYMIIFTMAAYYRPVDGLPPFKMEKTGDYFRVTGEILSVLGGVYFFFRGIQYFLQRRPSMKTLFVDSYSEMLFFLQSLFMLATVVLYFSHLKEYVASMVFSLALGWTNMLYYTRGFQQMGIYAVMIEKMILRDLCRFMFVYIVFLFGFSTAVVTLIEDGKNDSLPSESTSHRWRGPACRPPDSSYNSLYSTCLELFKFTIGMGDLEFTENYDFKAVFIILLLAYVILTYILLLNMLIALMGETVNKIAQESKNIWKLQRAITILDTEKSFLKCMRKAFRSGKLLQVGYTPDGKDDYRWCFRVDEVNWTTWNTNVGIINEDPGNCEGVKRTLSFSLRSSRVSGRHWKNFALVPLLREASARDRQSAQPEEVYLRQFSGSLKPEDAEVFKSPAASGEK
Procedure: hTRPV1 was constructed by amplification of the hTRPV1 region (NCBI accession number: NG_029716.1) and cloned into pEAK10 vector (Edge Biosystems, Gaithersburg, MD, USA). The hTRPV1 construct was amplified by PCR and the nucleotide sequence of the hTRPV1 gene was confirmed by sequencing with an ABI 3130 DNA genetic analyzer (Applied Biosystems, Foster City, CA, USA). […] After 6 h, transfected cells were seeded onto 96-well black-wall plate (BD Falcon Labware, Franklin Lakes, NJ, USA) for 18-26 h prior to their use in an experiment. Mock-transfected HEK293T cells, hTRPV1-expressing HEK293T cells, non-hTRPA1-expressing Flp-In 293 cells, and hTRPA1-expressing Flp-In 293 cells grown in 96-well black-wall plates were rinsed with assay buffer (130 mM NaCl, 10 mM glucose, 5 mM KCl, 2 […]2, 1.2 mM MgCl2, and 10 mM HEPES, pH 7.4) and loaded with 5 μM Fura-2 AM (Invitrogen) for 30 min at 27°C. […] The fluorescence intensities of Fura-2 excited at 340 and 380 nm were simultaneously measured at 510 nm using a computer-controlled filter changer (Lambda DG4; Sutter, San Rafael, CA, USA), an Andor Luca CCD camera (Andor Technology, Belfast, UK), and an inverted fluorescence microscope (IX-71; Olympus, Tokyo, Japan). Intracellular calcium images were recorded every 3-s for 60-s and analyzed using MetaFluor software (Molecular Devices, Sunnyvale, CA, USA).

hTRPV1 [5] = target: T2, hTRPV1; experiment: Measurement of Ca2+ influx (Fluo-4 AM, FlexStation III) in hTRPV1-expressing cells; format: cell-based; conditions: RR 30 µM or CPZ 1 µM added with agonist
Procedure: as §2, with “hTRPV1 was constructed by amplification of the hTRPV1 region (NCBI accession number: NG_029716.1) and cloned into pEAK10 vector (Edge Biosystems, Gaithersburg, MD, USA). The hTRPV1 construct was amplified by PCR and the nucleotide sequence of the hTRPV1 gene was confirmed by sequencing with an ABI 3130 DNA genetic analyzer (Applied Biosystems, Foster City, CA, USA). […] After 6 h, transfected cells were seeded onto 96-well black-wall plate (BD Falcon Labware, Franklin Lakes, NJ, USA) for 18–26 h prior to their use in an experiment. The ligand-induced” for “The ligand-induced”

[6] = tested on: Bz-insensitive NaCl CT response; parameters: method as in PMID 15146042; conditions: rat CT recordings, cited from earlier work
hTRPV1 [7] = target: T2, hTRPV1; experiment: Whole-cell patch clamp recording, hTRPV1-expressing HEK293T cells; format: cell-based; conditions: capsaicin 100 nM; NGCC 10^3 µM; holding -80 mV
Procedure: Mouse ASIC1a (mASIC1a) was a kind gift from John A. Wemmie (University of Iowa, IA, USA). For electrophysiological experiments, HEK293T cells were cultured in DMEM supplemented with 10% FBS and 0.2% penicillin/streptomycin and transiently transfected using Lipofectamine 2000 (Invitrogen) with various cDNAs. For TRPV1 channel expression, cells were transfected with hTRPV1, for ASIC1a homomeric channel expression, cells were transfected with mASIC1a. When needed, 0.1–0.2 µg of cDNA encoding tetrameric red fluorescence protein (DsRed) was co-transfected with the cDNA as a marker for successfully transfected cells. For non-transfected cells, cells were transfected with 0.1–0.2 µg of cDNA encoding DsRed alone. The next day, cells were plated onto poly-L-lysine-coated coverslip chips, and fluorescent cells were studied within 1–2 days.
as §3

T1 sequence (O75762 whole entry): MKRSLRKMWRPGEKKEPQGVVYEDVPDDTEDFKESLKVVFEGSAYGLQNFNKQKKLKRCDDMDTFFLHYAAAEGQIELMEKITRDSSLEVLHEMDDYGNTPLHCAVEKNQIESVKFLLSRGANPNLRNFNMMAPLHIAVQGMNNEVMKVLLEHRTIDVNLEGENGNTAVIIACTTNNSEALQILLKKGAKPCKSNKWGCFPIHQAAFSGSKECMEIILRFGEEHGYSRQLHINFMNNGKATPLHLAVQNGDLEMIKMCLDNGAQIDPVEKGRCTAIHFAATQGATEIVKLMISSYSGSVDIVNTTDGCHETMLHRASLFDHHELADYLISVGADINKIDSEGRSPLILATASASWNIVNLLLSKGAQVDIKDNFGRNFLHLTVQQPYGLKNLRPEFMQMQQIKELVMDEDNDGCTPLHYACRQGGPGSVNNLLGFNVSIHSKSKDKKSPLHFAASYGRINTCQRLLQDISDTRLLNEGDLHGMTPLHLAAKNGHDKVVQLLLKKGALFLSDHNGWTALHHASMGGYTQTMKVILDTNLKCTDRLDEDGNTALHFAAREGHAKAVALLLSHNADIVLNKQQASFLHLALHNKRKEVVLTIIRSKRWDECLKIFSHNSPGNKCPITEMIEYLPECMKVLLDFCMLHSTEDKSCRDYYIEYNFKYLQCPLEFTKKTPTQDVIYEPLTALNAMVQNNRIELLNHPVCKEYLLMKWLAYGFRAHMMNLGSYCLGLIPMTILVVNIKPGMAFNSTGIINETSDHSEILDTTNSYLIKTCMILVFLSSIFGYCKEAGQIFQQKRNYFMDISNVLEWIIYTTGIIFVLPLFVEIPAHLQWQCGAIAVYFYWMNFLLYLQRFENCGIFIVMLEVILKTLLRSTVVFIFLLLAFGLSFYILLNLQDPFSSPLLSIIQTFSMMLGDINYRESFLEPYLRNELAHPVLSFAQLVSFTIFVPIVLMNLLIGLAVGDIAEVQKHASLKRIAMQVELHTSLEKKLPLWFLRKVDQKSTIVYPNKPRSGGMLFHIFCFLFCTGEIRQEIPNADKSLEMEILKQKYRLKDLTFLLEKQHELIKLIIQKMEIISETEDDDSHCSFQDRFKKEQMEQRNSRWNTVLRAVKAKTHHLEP

Row | inhibition of Ca2+ influx induced by 10 µM AITC and 30 µM NGCC in hTRPA1-expressing cells (hTRPA1 [1]) | block of NGCC activity on hTRPA1-expressing cells (dose-response) (hTRPA1 [2]) | block of AITC activity on hTRPA1-expressing cells (dose-response) (hTRPA1 [2]) | block of NGCC-induced currents in hTRPA1-expressing cells (hTRPA1 [3]; HC-030031 100 µM) | block of AITC-induced current (hTRPA1 [3]; HC-030031 100 µM preincubation 30 seconds, AITC 100 µM) | normalized current density of NGCC-induced current after wash out of HC-030031 (hTRPA1 [3]; n = 4) | normalized current density of NGCC-induced current under HC-030031 (hTRPA1 [3]; n = 4) | block of NGCC-induced Ca2+ influx in hTRPV1-expressing cells (hTRPV1 [4]) | inward current in cells expressing hTRPV1 (hTRPV1 [7]) | Structure (SMILES) | block of capsaicin- and NGCC-induced hTRPV1 activation (dose-response) (hTRPV1 [5]) | effect on the NaCl+Bz CT response at 200 µM ([6]; 200 µM) | concentration giving the maximum increase in the NaCl+Bz CT response [6]
1 | significantly inhibited | almost blocked NGCC activity | partially blocked AITC activity | almost completely inhibited | partially blocked | 1.37±0.07 | 0.25±0.03 |  |  | CC(C)c1ccc(NC(=O)Cn2cnc3c2c(=O)n(C)c(=O)n3C)cc1 [HC-030031] |  |  | 
2 | significantly inhibited | almost blocked NGCC activity | partially blocked AITC activity |  |  |  |  | blocked NGCC activity to baseline levels |  | N.N.N.N.N.N.N.N.N.N.N.N.N.N.[Cl-].[Cl-].[Cl-].[Cl-].[Cl-].[Cl-].[O-2].[O-2].[Ru+3].[Ru+3].[Ru+4] [RR, ruthenium red] | inhibited capsaicin- and NGCC-induced hTRPV1 activation, but was less effective than CPZ |  | 
3 |  |  |  |  |  |  |  |  | induced an inward current | COc1cc(CNC(=O)CCCC/C=C/C(C)C)ccc1O [capsaicin, Capsaicin] |  | completely inhibited | 40 µM
